Data: US8778871B2 (Takeda Pharmaceutical Company Limited, priority 2004, dated 2014)
Non-standard residues stand in square brackets, D forms with d. Residues, ends and D or L forms follow the SMILES beside them. No end group written: not given here. *: point of attachment. Arg(Me) = CNC(=N)NCCC[C@H](N)C(=O)O; X4 = NC(=S)[C@H](Cc1ccccc1)N*; Abu = CC[C@H](N)C(=O)O; Hexanoyl = CCCCCC(=O)*; azaGly = NNC(=O)O

Legend:
[1] = target: T1, hOT7T175 (Homo sapiens, UniProt Q969F8, L364H); format: cell-based; conditions: hOT7T175/CHO, FLIPR, evaluation for 40 seconds after initiation of the reaction
T1 construct: expressed in transfected cells
Procedure: The intracellular Ca ion level-increasing activity was measured using FLIPR as in TEST EXAMPLE 2.

[2] = Action of reducing testosterone level in blood in mature male rat (1 mM peptide in 50% DMSO, ALZET osmotic pump); format: in vivo; conditions: 1 mM peptide in 50% DMSO aqueous solution, ALZET osmotic pump s.c., six days
Procedure: The peptide was encapsulated in five ALZET osmotic pump (Model 2001, 0.2 ml of volume, releasing rate 0.001 ml/hr, DURECT Corporation). The ALZET pumps encapsulated with the peptide solution were implanted to dorsal subcutaneous of five male CD (SD) IGS rat at nine weeks age (Charles River Japan, Inc.) anesthesized with ether for one pump to one rat. Separately, for negative controls, the ALZET osmotic pumps encapsulated with distilled water were implanted to five male CD (SD) IGS rat (Charles River Japan, Inc.) The rats were bred for six days under the normal conditions. After weighing, blood was collected by decapitation. To 1 ml of blood, 0.03 ml of aprotinin (Trasylol, Byer) solution containing 0.1 g/ml EDTA 2Na was added. The plasma was isolated by centrifugation at 1,800×g for 25 minutes and collected. The thus obtained plasma, 0.05 ml was effected by radioimmunoassay. (DPC Total Testosterone Kit, Diagnostic Products Corporation) to measure testosterone level in blood of each rat. The value beneath measuring limit of radioimmunoassay (0.04 ng/ml as concentration of plasma) was treated as zero. The mean values for testosterone level of five rats, to which the peptide was given, was calculated and the relative value (percentage) for the mean values of testosterone level of five rats, to which distilled watrer was given, was estimated.

[3] = target: T1, hOT7T175; assay: Intracellular Ca ion level-increasing activity using FLIPR (180 seconds; specific activity to Metastin (1-54)); format: cell-based; conditions: hOT7T175/CHO, relative to Metastin (1-54) = 1

T1 sequence (Q969F8 whole entry L364H): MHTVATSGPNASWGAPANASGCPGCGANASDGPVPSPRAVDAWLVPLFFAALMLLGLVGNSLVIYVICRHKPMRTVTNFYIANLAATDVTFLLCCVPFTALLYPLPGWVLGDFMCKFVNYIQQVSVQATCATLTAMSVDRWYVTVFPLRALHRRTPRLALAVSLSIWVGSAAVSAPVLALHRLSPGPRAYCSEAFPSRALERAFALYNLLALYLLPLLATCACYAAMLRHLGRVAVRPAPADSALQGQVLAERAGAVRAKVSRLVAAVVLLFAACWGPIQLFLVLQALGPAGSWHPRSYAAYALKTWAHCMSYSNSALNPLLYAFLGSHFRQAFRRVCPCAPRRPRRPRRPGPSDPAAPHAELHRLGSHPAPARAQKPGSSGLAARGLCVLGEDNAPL

Molecule	Specific Act. (EC50/MS10 EC50) [1]	Testosterone level in Blood [2]	Specific Act. (intracellular Ca ion level-increasing activity, specific activity to Metastin (1-54)) [3]
Ac-[dL][dW]NTF[azaGly]L[Arg(Me)]W-NH2 [Compound No. 617]	2.4	2%	
Ac-D-Trp-Asn-Thr-Phe-AzaGly-Leu-Arg(Me)-Trp-NH2 (Ac-[dW]NTF[azaGly]L[Arg(Me)]W-NH2; SMILES CNC(=N)NCCC[C@H](NC(=O)[C@H](CC(C)C)NC(=O)NNC(=O)[C@H](Cc1ccccc1)NC(=O)[C@@H](NC(=O)[C@H](CC(N)=O)NC(=O)[C@@H](Cc1c[nH]c2ccccc12)NC(C)=O)[C@@H](C)O)C(=O)N[C@@H](Cc1c[nH]c2ccccc12)C(N)=O) [Compound No. 666]	1.1	2%	
Ac-[dY][dL]NTF[azaGly]L[Arg(Me)]W-NH2 [Compound No. 626]	2.1	2%	
G[dY][dW]NTF[azaGly]L[Arg(Me)]W-NH2 [Compound No. 648]	1.6	2%	
Hexanoyl-D-Trp-Asn-Thr-Phe-AzaGly-Leu-Arg(Me)-Trp-NH2 (Hexanoyl-[dW]NTF[azaGly]L[Arg(Me)]W-NH2; SMILES CCCCCC(=O)N[C@H](Cc1c[nH]c2ccccc12)C(=O)N[C@@H](CC(N)=O)C(=O)N[C@H](C(=O)N[C@@H](Cc1ccccc1)C(=O)NNC(=O)N[C@@H](CC(C)C)C(=O)N[C@@H](CCCNC(=N)NC)C(=O)N[C@@H](Cc1c[nH]c2ccccc12)C(N)=O)[C@@H](C)O) [Compound No. 667]	1.4	2%	
CC(C)C[C@H](NC(=O)CNC(=O)[C@H](Cc1ccccc1)NC(=O)[C@H](CO)NC(=O)[C@H](CC(N)=O)NC(=O)[C@@H](Cc1c[nH]c2ccccc12)NC(=O)[C@H](CC(N)=O)NC(=O)[C@@H](N)Cc1ccc(O)cc1)C(=O)N[C@@H](CCCNC(=N)N)C(=O)N[C@@H](Cc1ccccc1)C(N)=O [Compound No. 40]	1.6		30
CNC(=N)NCCC[C@H](NC(=O)[C@H](CC(C)C)NC(=O)CNC(=O)[C@H](Cc1ccccc1)NC(=O)[C@H](CO)NC(=O)[C@H](C)NC(=O)[C@H](Cc1c[nH]c2ccccc12)NC(=O)[C@H](CC(N)=O)NC(=O)[C@H](N)Cc1ccc(O)cc1)C(=O)N[C@@H](Cc1ccccc1)C(N)=O [Compound No. 210] (H-[dY]NWASFGL[Arg(Me)]F-NH2)	9.3		1
CC(C)C[C@H](NC(=O)CNC(=O)[C@H](Cc1ccccc1)NC(=O)[C@H](CO)NC(=O)[C@H](CC(N)=O)NC(=O)[C@H](Cc1c[nH]c2ccccc12)NC(=O)[C@H](CC(N)=O)NC(=O)[C@H](N)Cc1ccc(O)cc1)C(=O)N[C@@H](CCCNC(=N)N)C(=O)N[C@@H](Cc1ccccc1)C(N)=S [Compound No. 146] (H-[dY]NWNSFGLR-X4)	1.5		10
CC[C@H](NC(=O)CNC(=O)[C@H](Cc1ccccc1)NC(=O)[C@H](CO)NC(=O)[C@H](CC(N)=O)NC(=O)[C@H](Cc1c[nH]c2ccccc12)NC(=O)[C@H](CC(N)=O)NC(=O)[C@@H](N)Cc1ccc(O)cc1)C(=O)N[C@@H](CCCNC(=N)N)C(=O)N[C@@H](Cc1ccccc1)C(N)=O [Compound No. 187, Tyr-Asn-Trp-Asn-Ser-Phe-Gly-Abu-Arg-Phe-NH2] (H-YNWNSFG[Abu]RF-NH2)	1.9		1
CC(C)C[C@H](NC(=O)CNC(=O)[C@H](Cc1ccccc1)NC(=O)[C@H](CO)NC(=O)[C@H](CC(N)=O)NC(=O)[C@H](Cc1c[nH]c2ccccc12)NC(=O)[C@H](CC(N)=O)NC(=O)[C@@H](N)Cc1ccc(O)cc1)C(=O)N[C@@H](CCCCNC(=N)N)C(=O)N[C@@H](Cc1ccccc1)C(N)=O [Compound No. 97]	2.9		10
CNC(=N)NCCC[C@H](NC(=O)[C@H](CC(C)C)NC(=O)CNC(=O)[C@H](Cc1ccccc1)NC(=O)[C@@H](NC(=O)[C@H](CC(N)=O)NC(=O)[C@H](Cc1c[nH]c2ccccc12)NC(=O)[C@H](CC(N)=O)NC(=O)[C@H](N)Cc1ccc(O)cc1)[C@@H](C)O)C(=O)N[C@@H](Cc1ccccc1)C(N)=O [Compound No. 211] (H-[dY]NWNTFGL[Arg(Me)]F-NH2)	1.3		10
H-YNWNSFGLRY-NH2 [Compound No. 109]	2.6		20
CC(C)C[C@H](NC(=O)CNC(=O)[C@H](Cc1ccccc1)NC(=O)[C@H](CO)NC(=O)[C@H](CC(N)=O)NC(=O)[C@H](Cc1c[nH]c2ccccc12)NC(=O)[C@@H](CC(N)=O)NC(=O)[C@@H](N)Cc1ccc(O)cc1)C(=O)N[C@@H](CCCNC(=N)N)C(=O)N[C@@H](Cc1ccccc1)C(N)=O [Compound No. 41]	2.7		10
